Measured values from patent publication US20240316051A1, “A PHARMACEUTICAL COMBINATION AND USE THEREOF” (Ascentage Pharma (Suzhou) Co., Ltd., priority 2021, published 2024).

Tested on: BAP1 mut mesothelioma PDX model
Test: BAP1 mut mesothelioma PDX model (Examples 15-17)
Assay type: in vivo, mice
Details: orally, once per day, 28 days
Procedure: A subcutaneous xenograft tumor model of human tumor immunodeficient mice was established by cell inoculation: tumor cells in logarithmic growth phase were collected, counted, resuspended in 1×PBS, and the cell suspension concentration was adjusted to 2.5-5×10^7/mL. The tumor cells were inoculated subcutaneously in the right side of immunodeficient mice with a 1 ml syringe ([…]), 5-10×10^6/0.2 mL/mouse. All animal experiments were strictly in accordance with the specifications for the use and management of experimental animals in GenePharma Co., Ltd. and Suzhou Ascentage Pharma Co., Ltd. The calculation of relevant parameters refers to the Chinese NMPA “Guidelines for Non-Clinical Research Techniques of Cytotoxic Anti-tumor Drugs”.
Animal body weight and tumor size were measured twice weekly during the experiment. The state of the animal and the presence or absence of death were observed every day. The growth of tumor and the effects of treatment on normal behavior of animals were monitored routinely, specifically involving experimental animal activity, feeding and drinking, weight gain or loss, eyes, clothing hair and other abnormalities. The deaths and clinical symptoms observed during the experiment were recorded in the raw data. All operations for administration and measurement of mouse body weight and tumor volume were performed in a clean bench. According to the requirements of the experimental protocol, after the end of the last administration, plasma and tumor tissues were collected, weighed and photographed. The plasma and tumor samples were frozen at −80° C. for ready-to-use.
Tumor volume (TV) is calculated as: TV=a×b^2/2, wherein a and b represent the length and width of the tumor to be measured, respectively.
The relative tumor volume (RTV) is calculated as: RTV=Vt/V1, wherein V1 is the tumor volume at the start of grouping and administration, and Vt is the tumor volume measured on the t day after administration.
The evaluation index of anti-tumor activity is the relative tumor proliferation rate T/C (%), and the calculation formula thereof is: relative tumor proliferation rate T/C (%)=(TRTV/CRTV)×100%, TRTV is the RTV of treatment group, CRTV is the RTV of solvent control group.
A dose of drug is considered to be severely toxic if the body weight of mouse is reduced by more than 20% or the number of drug-related deaths exceeds 20%.
According to the description by Clarke R., Issues in experimental design and endpoint analysis in the study of experimental cytotoxic agents in vivo in breast cancer and other models [J]. Breast Cancer Research & Treatment, 1997, 46(2-3): 255-278, synergy analysis was evaluated using the following formula: synergy factor=((A/C)×(B/C))/(AB/C); A=RTV value of drug A alone group; B=RTV value of drug B alone group; C=RTV value of the solvent control group, and AB=RTV value of the A and B combination group.
In this experiment, a BAP1 mut mesothelioma PDX model (Lide Biotech) was established to evaluate the anti-tumor effect of Compound 73. The dosing regimen was as follows: • Compound 73: 50 mg/kg, orally, once per day, for a total of 28 days; • Compound 73: 100 mg/kg, orally, once per day, for a total of 28 days;
In this experiment, a BAP1 mut mesothelioma PDX model (Lide Biotech) was established to evaluate the anti-tumor effect of Compound 73 in combination with Compound A-1. […]

## CC(C)N1Cc2cc(C(F)(F)F)ncc2-c2cnc(NCc3c(F)ccc4c3CCO4)n3cnc(c23)C1=O [Compound 73, 12-(((5-fluoro-2,3-dihydrobenzofuran-4-yl)methyl)amino)-4-isopropyl-7-(trifluoromethyl)-4,5-dihydro-3H-2,4,8,11,12a-pentaazabenzo[4,5]cycloocta[1,2,3-cd]inden-3-one]
Compound 73 50 mg/kg, end of study
  T/C (%): 69.7%
Compound 73 100 mg/kg, 100 mg/kg
  T/C (%): 60%
Compound 73 single agent, 50 and 100 mg/kg
  antitumor activity (in words): dose-dependent antitumor activity
